Key:
[1] = molecular target: benzodiazepine receptor; experiment: Displacement of 3H-flumazenil in rat cortical tissue (receptor binding); conditions: for Ki: 3H-Flumazenil binding in vitro, rat cortical membranes, mean ± SD of three determinations
Method: Affinity of test substances for the benzodiazepine receptor was determined in vitro by displacement of ^3H-flumazenil in rat cortical tissue.

| melting point | Ki [1] | fold difference in potency among the ethylene linked compounds, thiophene over phenyl ([1]; ratio of Ki values, printed as 14a over 14b) | affinity for the BZD receptor (in words) ([1]; discussion of Table 1) | fold higher affinity of methylene linked thiophene compared to phenyl 16a ([1]; ratio of Ki values, vs 16a) | SMILES |
| --- | --- | --- | --- | --- | --- |
| 216 °C | – | – | – | – | Cc1ccc(-n2nc3c4cc(C#Cc5ccc(Oc6ccccc6)cc5)ccc4[nH]c(=O)n3c2=O)cc1 [Compound 13f, 2-(4-Methylphenyl)-9-[(4-phenoxyphenyl)ethynyl]-2,6-dihydro[1,2,4]triazolo[4,3-c]-quinazoline-3,5-dione] |
| 281 °C | 0.94 ± 0.27 nM | – | – | – | Cc1ccc(-n2nc3c4cc(CCc5ccsc5)ccc4[nH]c(=O)n3c2=O)cc1 [Compound 14b, 2-(4-Methylphenyl)-9-[2-(3-thienyl)ethyl]-2,6-dihydro[1,2,4]triazolo[4,3-c]-quinazoline-3,5-dione] |
| 330 °C | – | – | – | – | Cc1ccc(-n2nc3c4cc(C#Cc5ccccn5)ccc4[nH]c(=O)n3c2=O)cc1 [Compound 13c, 2-(4-Methylphenyl)-9-(pyridin-2-ylethynyl)-2,6-dihydro[1,2,4]triazolo[4,3-c]-quinazoline-3,5-dione] |
| 213 °C | 123 ± 12 nM | – | – | – | Cc1ccc(-n2nc3c4cc(CCc5ccc(Oc6ccccc6)cc5)ccc4[nH]c(=O)n3c2=O)cc1 [Compound 14f, 2-(4-Methylphenyl)-9-[2-(4-phenoxyphenyl)ethyl]-2,6-dihydro[1,2,4]triazolo[4,3-o]-quinazoline-3,5-dione] |
| 324 °C | 2.1 ± 0.3 nM | – | – | – | Cc1ccc(-n2nc3c4cc(Cc5cccc(F)c5)ccc4[nH]c(=O)n3c2=O)cc1 [Compound 16b, 9-(3-Fluorobenzyl)-2-(4-methylphenyl)-2,6-dihydro[1,2,4]triazolo[4,3-c]quinazoline-3,5-dione] |
| 330 °C (dec.) | 0.62 ± 0.13 nM | – | – | – | Cc1ccc2[nH]c(=O)n3c(=O)n(-c4ccccc4)nc3c2c1 [Compound 8e, 9-Methyl-2-phenyl-2,6-dihydro[1,2,4]triazolo[4,3-c]quinazoline-3,5-dione] |
| 405 °C | 0.47 ± 0.09 nM | – | – | – | O=c1[nH]c2ccc(Br)cc2c2nn(-c3ccccc3)c(=O)n12 [Compound 8b, 9-Bromo-2-phenyl-2,6-dihydro[1,2,4]triazolo[4,3-c]quinazoline-3,5-dione] |
| 303 °C | 4 ± 1.2 nM | 4 fold | – | – | Cc1ccc(-n2nc3c4cc(CCc5ccccc5)ccc4[nH]c(=O)n3c2=O)cc1 [Compound 14a, 2-(4-Methylphenyl)-9-(2-phenylethyl)-2,6-dihydro[1,2,4]triazolo[4,3-c]-quinazoline-3,5-dione] |
| 330 °C | – | – | – | – | Cc1ccc(-n2nc3c4cc(C#Cc5ccncc5)ccc4[nH]c(=O)n3c2=O)cc1 [Compound 13e, 2-(4-Methylphenyl)-9-(pyridin-4-ylethynyl)-2,6-dihydro[1,2,4]triazolo[4,3-c]-quinazoline-3,5-dione] |
| > 300 °C (dec.) | 40 nM | – | – | – | Cc1ccc(-n2nc3c4cc(C#Cc5ccccc5)ccc4[nH]c(=O)n3c2=O)cc1 [Compound 13a, 2-(4-Methylphenyl)-9-phenylethynyl-2,6-dihydro[1,2,4]triazolo[4,3-c]-quinazoline-3,5-dione] |
| 292 °C | 0.2 ± 0.04 nM | – | – | – | Cc1ccc(-n2nc3c4cc(CCc5cccnc5)ccc4[nH]c(=O)n3c2=O)cc1 [Compound 14d, 2-(4-Methylphenyl)-9-[2-(3-pyridyl)ethyl]-2,6-dihydro[1,2,4]triazolo[4,3-c]-quinazoline-3,5-dione] |
| 164 °C | > 30000 nM | – | low affinity | – | CCOC(=O)n1c(=S)[nH]c2ccc(C)cc2c1=O [Compound 3b, Ethyl 6-methyl-4-oxo-2-thioxo-1,4-dihydroquinazoline-3(2H)-carboxylate] |
| 300 °C (dec.) | 6.2 nM | – | – | – | Cc1ccc(-n2nc3c4cc(CCc5cccc(O)c5)ccc4[nH]c(=O)n3c2=O)cc1 [Compound 14i, 9-[2-(3-hydroxyphenyl)ethyl]-2-(4-Methylphenyl)-2,6-dihydro[1,2,4]triazolo[4,3-c]-quinazoline-3,5-dione] |
| > 350 °C (dec.) | – | – | – | – | Cc1ccc(-n2nc3c4cc(C#Cc5ccc(-c6ccccc6)cc5)ccc4[nH]c(=O)n3c2=O)cc1 [Compound 13g, 9-(Biphen-4-ylethynyl)-2-(4-methylphenyl)-2,6-dihydro[1,2,4]triazolo[4,3-c]-quinazoline-3,5-dione] |
| 275 °C | 1.4 nM | – | – | – | Cc1ccc(-n2nc3c4cc(CCC(=O)O)ccc4[nH]c(=O)n3c2=O)cc1 [Compound 18, 3-[2-(4-Methylphenyl)-3,5-dioxo-2,6-dihydro[1,2,4]triazolo[4,3-c]quinazolin-9-yl]propanoic acid] |
| > 320 °C (dec.) | – | – | – | – | Cc1ccc(-n2nc3c4cc(C#Cc5ccsc5)ccc4[nH]c(=O)n3c2=O)cc1 [Compound 13b, 2-(4-Methylphenyl)-9-(3-thienylethynyl)-2,6-dihydro[1,2,4]triazolo[4,3-c]-quinazoline-3,5-dione] |
| > 300 °C (dec.) | 0.53 ± 0.11 nM | – | – | – | Cc1ccc(-n2nc3c4cc(CCc5ccccn5)ccc4[nH]c(=O)n3c2=O)cc1 [Compound 14c, 2-(4-Methylphenyl)-9-[2-(2-pyridyl)ethyl]-2,6-dihydro[1,2,4]triazolo[4,3-c]-quinazoline-3,5-dione] |
| 345 °C | 1570 ± 150 nM | – | – | – | Cc1ccc(-n2nc3c4cc(CCc5ccc(-c6ccccc6)cc5)ccc4[nH]c(=O)n3c2=O)cc1 [Compound 14g] |
| 300 °C (dec.) | – | – | – | – | Cc1ccc(-n2nc3c4cc(C#Cc5cccc(O)c5)ccc4[nH]c(=O)n3c2=O)cc1 [Compound 13i, 9-(3-Hydroxyphenyl)ethynyl-2-(4-methylphenyl)-2,6-dihydro[1,2,4]triazolo[4,3-c]-quinazoline-3,5-dione] |
| 287 °C | 0.23 ± 0.18 nM | – | – | 5 fold | Cc1ccc(-n2nc3c4cc(Cc5ccsc5)ccc4[nH]c(=O)n3c2=O)cc1 [Compound 16c, 2-(4-Methylphenyl)-9-(3-thienylmethyl)-2,6-dihydro[1,2,4]triazolo[4,3-c]quinazoline-3,5-dione] |
| 294 °C | 0.17 ± 0.03 nM | – | – | – | Cc1ccc(-n2nc3c4cc(CCc5ccncc5)ccc4[nH]c(=O)n3c2=O)cc1 [Compound 14e, 2-(4-Methylphenyl)-9-[2-(4-pyridyl)ethyl]-2,6-dihydro[1,2,4]triazolo[4,3-c]-quinazoline-3,5-dione] |
| 299 °C | ~1 nM | – | – | – | Cc1ccc(-n2nc3c4cc(Cc5ccccc5)ccc4[nH]c(=O)n3c2=O)cc1 [Compound 16a, 9-Benzyl-2-(4-methylphenyl)-2,6-dihydro[1,2,4]triazolo[4,3-c]quinazoline-3,5-dione] |
| 347 °C (dec.) | 0.2 ± 0.07 nM | – | – | – | O=c1[nH]c2ccc(Br)cc2c2nn(-c3ccccc3F)c(=O)n12 [Compound 8d, 9-Bromo-2-(2-fluorophenyl)-2,6-dihydro[1,2,4]triazolo[4,3-c]quinazoline-3,5-dione] |
| 369 °C | 0.24 ± 0.07 nM | – | – | – | Cc1ccc(-n2nc3c4cc(Br)ccc4[nH]c(=O)n3c2=O)cc1 [Compound 8a, 9-Bromo-2-(4-methylphenyl)-2,6-dihydro[1,2,4]triazolo[4,3-c]quinazoline-3,5-dione] |
| 242 °C | – | – | – | – | Cc1ccc(-n2nc3c4cc(/C=C/C(=O)OCc5ccccc5)ccc4[nH]c(=O)n3c2=O)cc1 [Compound 17, Benzyl (2E)-3-[2-(4-methylphenyl)-3,5-dioxo-2,6-dihydro[1,2,4]triazolo[4,3-c]quinazolin-9-yl]acrylate] |
| 387 °C (dec.) | 0.6 ± 0.26 nM | – | – | – | O=c1[nH]c2ccc(Br)cc2c2nn(-c3ccc(Cl)cc3)c(=O)n12 [Compound 8c, 9-Bromo-2-(4-chlorophenyl)-2,6-dihydro[1,2,4]triazolo[4,3-c]quinazoline-3,5-dione] |
| 339 °C | – | – | – | – | Cc1ccc(-n2nc3c4cc(C#Cc5cccnc5)ccc4[nH]c(=O)n3c2=O)cc1 [Compound 13d, 2-(4-Methylphenyl)-9-(pyridin-3-ylethynyl)-2,6-dihydro[1,2,4]triazolo[4,3-c]-quinazoline-3,5-dione] |
